Test results from the Deep4Chem optical property database.

Assay: photoluminescence quantum yield (fraction); solvent given as SMILES
[1] = in c1cc(-c2cccc(-n3c4ccccc4c4ccccc43)c2)cc(-n2c3ccccc3c3ccccc32)c1
[2] = in O=P(c1ccccc1)(c1ccccc1)c1ccccc1Oc1ccccc1P(=O)(c1ccccc1)c1ccccc1

Work on `CC1=CC(C)=[N+]2C1=C(C1=C3C(C)=CC(C)=[N+]3[B-](F)(F)n3c(C)cc(C)c31)c1c(C)cc(C)n1[B-]2(F)F` yielded a photoluminescence quantum yield (in ClC(Cl)Cl) of 0.31.
For `c1ccc(-c2nc3sc4cc5c(cc4c3s2)OCO5)cc1`, the photoluminescence quantum yield (in CS(C)=O) was 0.62.
In the case of `Cc1ccc(-c2nc(-c3cccc(C#N)c3)[nH]c2-c2ccc(C)cc2)cc1`, the photoluminescence quantum yield (in CO) was 0.17.
For `Fc1cccc(C2=Cc3ccc4ccccc4[n+]3[B-](F)(F)O2)c1`, the photoluminescence quantum yield (in ClC(Cl)Cl) was 0.47.
In the case of `CCC1(CC)c2cc(B(c3c(C)cc(C)cc3C)c3c(C)cc(C)cc3C)ccc2-c2c1c1c(c3c2C(CC)(CC)c2cc(B(c4c(C)cc(C)cc4C)c4c(C)cc(C)cc4C)ccc2-3)C(CC)(CC)c2cc(B(c3c(C)cc(C)cc3C)c3c(C)cc(C)cc3C)ccc2-1`, the photoluminescence quantum yield (in C1CCOC1) was 0.34.
Work on `Cc1oc(C)c2c1C=C(C=O)CC(C=O)=C2` yielded a photoluminescence quantum yield (in ClC(Cl)Cl) of 0.
For `Cc1ccc(-c2[nH]c(=O)n3c2-c2ccccc2C3=O)c(O)c1`, the photoluminescence quantum yield (in CC#N) was 0.51, the photoluminescence quantum yield (in CO) was 0.14 and the photoluminescence quantum yield (in ClCCl) was 0.63.
Work on `COc1ccc(C(=O)OCc2ccc3c4cccc5cccc(c6cccc2c63)c54)cc1` yielded a photoluminescence quantum yield (in CCO) of 0.93.
Compound `c1ccc(-c2nc(-c3ccccc3)nc(-c3ccc(-n4c5ccccc5c5ccc6c(c7ccccc7n6-c6ccccc6)c54)cc3)n2)cc1` has a photoluminescence quantum yield (in O=P(c1ccccc1)(c1ccccc1)c1ccc2oc3ccc(P(=O)(c4ccccc4)c4ccccc4)cc3c2c1) of 0.9.
With `COc1ccc(C#Cc2c(C#Cc3ccc(OC)cc3)c(C#Cc3ccc(OC)cc3)c(C#Cc3ccc(OC)cc3)c(C#Cc3ccc(OC)cc3)c2C#Cc2ccc(OC)cc2)cc1` the photoluminescence quantum yield (in ClCCl) was 0.55.
In the case of `N#Cc1cnc(-c2c3ccccc3c(-c3ccccc3)c3ccccc23)nc1`, the photoluminescence quantum yield (in CCO) was 0.04 and the photoluminescence quantum yield (in ClCCl) was 0.0001.
Work on `N#Cc1c(C#N)c2ccccc2c2ccccc12` yielded a photoluminescence quantum yield (in ClC(Cl)Cl) of 0.17.
Compound `c1ccc(-c2c3ccccc3c(-c3ncccn3)c3ccccc23)cc1` has a photoluminescence quantum yield (in CCO) of 0.08 and a photoluminescence quantum yield (in ClCCl) of 0.16.
Compound `Clc1cc(Cl)c(B2c3ccccc3Nc3ccccc32)c(Cl)c1` has a photoluminescence quantum yield (in ClCCl) of 0.82.
Work on `CC(C)(C)c1cc(-n2c(-c3ccc(C(=C(c4ccccc4)c4ccccc4)c4ccccc4)cc3)cc3c2cc(-c2ccc(C(=C(c4ccccc4)c4ccccc4)c4ccccc4)cc2)n3-c2cc(C(C)(C)C)cc(C(C)(C)C)c2)cc(C(C)(C)C)c1` yielded a photoluminescence quantum yield (in ClCCl) of 0.0085.
Work on `N#Cc1nn(-c2ccccc2)nc1N1CCCC1` yielded a photoluminescence quantum yield (in CC#N) of 0.886.
`COCCOCCOCN1C(=O)c2ccc3c(-c4ccccc4)c4c5ccc6c7c(ccc(c(-c8ccccc8)c4c4ccc(c2c34)C1=O)c75)C(=O)N(COCCOCCOC)C6=O` gave a photoluminescence quantum yield (in ClCCl) of 0.05.
For `c1cc2ccc3ccc(-c4ccc(-c5nnc(-c6ccc(-c7nnc(-c8ccc(-c9ccc%10ccc%11cccc%12ccc9c%10c%11%12)s8)o7)cc6)o5)s4)c4ccc(c1)c2c34`, the photoluminescence quantum yield (in ClC(Cl)Cl) was 0.06.
`COc1ccc(-c2nc3c([nH]2)C2=CC(=O)S[C@]2(C)[C@@]2(C)SC(=O)C=C32)cc1` gave a photoluminescence quantum yield (in CC#N) of 0.17.
In the case of `CC(=O)Nc1ccc(S(=O)(=O)O)c(/N=N/c2c(O)c3ccccc3n(C)c2=O)c1`, the photoluminescence quantum yield (in CS(C)=O) was 0.03.
Work on `C[N+]1=C(/C=C/C2=C3Oc4c(cc5c6c4CCCN6CCC5)C(c4ccccc4C(=O)O)=C3CCC2)C(C)(C)c2ccccc21` yielded a photoluminescence quantum yield (in CC#N) of 0.25, a photoluminescence quantum yield (in CCO) of 0.34 and a photoluminescence quantum yield (in CO) of 0.35. For the same compound, the photoluminescence quantum yield (in ClC(Cl)Cl) was 0.51.
`N#Cc1ccc(C=C(c2ccccc2)c2ccccc2)cc1` gave a photoluminescence quantum yield (in C1CCOC1) of 0.046.
Work on `N#Cc1cc2ccccc2oc1=N` yielded a photoluminescence quantum yield (in C1CCOC1) of 0.0681, a photoluminescence quantum yield (in CC#N) of 0.00119 and a photoluminescence quantum yield (in CCOC(C)=O) of 0.0842. The photoluminescence quantum yield (in CS(C)=O) was 0.00124 and the photoluminescence quantum yield (in ClC(Cl)Cl) was 0.0946.
In the case of `CC1=CC2=Nc3nc(C)[n+](C)cc3CN2C=C1`, the photoluminescence quantum yield (in CC#N) was 0.85, the photoluminescence quantum yield (in CCO) was 0.86 and the photoluminescence quantum yield (in O) was 0.79.
For `CCn1ncc2c3c(C#N)c4c5ccccc5n(CC)c4nc3ccc21`, the photoluminescence quantum yield (in CCOC(C)=O) was 0.6.
With `CCc1c(C)[nH]c(C2=[N+]3C(=C(C)c4c(C)c(CC)c(C)n4[B-]3(F)F)c3ccccc32)c1C` the photoluminescence quantum yield (in C1CCOC1) was 0.27, the photoluminescence quantum yield (in CC#N) was 0.21 and the photoluminescence quantum yield (in CCCCCC) was 0.93. It also gave a photoluminescence quantum yield (in CO) of 0.21, a photoluminescence quantum yield (in Cc1ccccc1) of 0.71 and a photoluminescence quantum yield (in ClCCl) of 0.72.
`O=c1c2ccccc2n2c3ccc(-c4ccccc4)cc3c(=O)c3cccc1c32` showed a photoluminescence quantum yield [1] of 0.73 and a photoluminescence quantum yield (in c1cc(-n2c3ccccc3c3ccccc32)cc(-n2c3ccccc3c3ccccc32)c1) of 0.73.
Compound `CCN(CC)c1ccc2c(c1)oc(=O)c1c(=O)oc3c(C)c4oc(=O)c5c(=O)oc6cc(N(CC)CC)ccc6c5c4cc3c12` has a photoluminescence quantum yield (in CS(C)=O) of 0.002 and a photoluminescence quantum yield (in ClCCl) of 0.67.
Compound `O=C(c1ccncc1)c1ccc(-n2c3ccccc3c3ccccc32)cc1` has a photoluminescence quantum yield (in Cc1ccccc1) of 0.012 and a photoluminescence quantum yield [1] of 0.38.
In the case of `c1ccc(-n2nc(-c3ccc(N4c5ccccc5Sc5ccccc54)cc3)nc2-c2ccccn2)cc1`, the photoluminescence quantum yield (in ClCCl) was 0.0562.
`Oc1ccc2ncccc2c1` gave a photoluminescence quantum yield (in CC#N) of 0.088, a photoluminescence quantum yield (in CCCC#N) of 0.086 and a photoluminescence quantum yield (in CO) of 0.107. The photoluminescence quantum yield (in Cc1ccccc1) was 0.008 and the photoluminescence quantum yield (in ClCCl) was 0.043.
`CC(C)(C)c1ccc2ccc3cc(-c4ccc5c(-c6ccc7c(ccc8ccc(C(C)(C)C)cc87)c6)cc6c7cc(-c8ccc9c(ccc%10ccc(C(C)(C)C)cc%109)c8)ccc7c(-c7ccc8c(ccc9ccc(C(C)(C)C)cc98)c7)cc6c5c4)ccc3c2c1` showed a photoluminescence quantum yield (in ClCCl) of 0.781.
In the case of `CC1=[N+]2C(=C(c3ccccc3)c3c4c(c(C)n3[B-]2(F)F)CCc2ccccc2-4)C2=C1CCc1ccccc12`, the photoluminescence quantum yield (in CC#N) was 0.1.
Compound `Cc1ccc(C2=C3C=CC(/C=C/c4ccccc4)=[N+]3[B-](F)(F)n3c(Cl)ccc32)cc1` has a photoluminescence quantum yield (in C1CCCCC1) of 0.72, a photoluminescence quantum yield (in C1CCOC1) of 0.56 and a photoluminescence quantum yield (in C1COCCO1) of 0.6. For the same compound, the photoluminescence quantum yield (in CCOC(C)=O) was 0.57, the photoluminescence quantum yield (in CO) was 0.55 and the photoluminescence quantum yield (in Cc1ccccc1) was 0.69. For the same compound, the photoluminescence quantum yield (in ClC(Cl)Cl) was 0.68.
`F[B-]1(F)n2c(c(-c3cccs3)c3c2-c2ccccc2CC3)C=C2C(c3cccs3)=C3CCc4ccccc4C3=[N+]21` showed a photoluminescence quantum yield (in CC#N) of 0.84.
In the case of `C(=C\c1ncc(-c2ccc(OCc3ccccc3)c(OCc3ccccc3)c2)o1)/c1cccc(N2CCN(c3ccccc3)CC2)c1`, the photoluminescence quantum yield (in ClCCl) was 0.11.
`N#Cc1c(N2CCCCC2)cc(-c2ccc3c(c2)OCO3)c2c1-c1cccc3cccc-2c13` showed a photoluminescence quantum yield (in O) of 0.3.
`Cc1cc(-c2nc(-c3ccccc3)nc(-c3ccccc3)n2)ccc1-n1c2ccccc2c2cc3c(cc21)C1c2ccccc2C3c2ccccc21` showed a photoluminescence quantum yield (in Cc1ccccc1) of 0.6 and a photoluminescence quantum yield [2] of 0.32.
`c1ccc2c(c1)c1ccccc1n2-c1ccc(-c2nnc(-c3ccc(-n4c5ccccc5c5ccccc54)cc3)o2)cc1` showed a photoluminescence quantum yield [2] of 0.93.
`COc1ccc(-c2ncccn2)cc1` gave a photoluminescence quantum yield (in ClCCl) of 0.01.
`CCN(CC)c1ccc2c(-c3ccc(S(=O)(=O)[O-])cc3S(=O)(=O)[O-])c3ccc(=[N+](CC)CC)cc-3oc2c1` showed a photoluminescence quantum yield (in CC#N) of 0.52, a photoluminescence quantum yield (in CCO) of 0.68 and a photoluminescence quantum yield (in CN(C)C=O) of 0.51. It also gave a photoluminescence quantum yield (in O) of 0.3.
For `CON(OC)c1cc2c3cc(-c4c(C)cc(C)cc4C)cc4c5cc(-c6c(C)cc(C)cc6C)cc6c7cc(B(c8c(C)cc(C)cc8C)c8c(C)cc(C)cc8C)cc8c9cc(-c%10c(C)cc(C)cc%10C)cc%10c%11cc(-c%12c(C)cc(C)cc%12C)cc%12c(c1)c2c1c(c43)c(c65)c(c78)c(c9%10)c1c%11%12`, the photoluminescence quantum yield (in C1CCOC1) was 0.46, the photoluminescence quantum yield (in CC(C)=O) was 0.05 and the photoluminescence quantum yield (in CCCCCC) was 0.22. For the same compound, the photoluminescence quantum yield (in Cc1ccccc1) was 0.42, the photoluminescence quantum yield (in ClC(Cl)Cl) was 0.46 and the photoluminescence quantum yield (in ClCCl) was 0.56.
`c1cc2c([nH]c3c4[nH]c5sccc5c4c4nsnc4c23)s1` gave a photoluminescence quantum yield (in C1CCOC1) of 0.38, a photoluminescence quantum yield (in CCOC(C)=O) of 0.34 and a photoluminescence quantum yield (in CN(C)C=O) of 0.33. It also gave a photoluminescence quantum yield (in Cc1ccccc1) of 0.42 and a photoluminescence quantum yield (in ClCCl) of 0.27.
For `c1ccc(C2=C(c3ccccc3)c3cccc4c3c(cc3nc5c(-c6ccccc6)ccc(-c6ccccc6)c5nc34)O2)cc1`, the photoluminescence quantum yield (in ClCCl) was 0.23.
Compound `COc1ccc(C(=O)NN2C3=C(CC4=C2CCCC4=O)C(=O)CCC3)cc1` has a photoluminescence quantum yield (in CC#N) of 0.59, a photoluminescence quantum yield (in CC(C)=O) of 0.48 and a photoluminescence quantum yield (in CCCCCO) of 0.6. It also gave a photoluminescence quantum yield (in CO) of 0.32, a photoluminescence quantum yield (in ClC(Cl)Cl) of 0.57 and a photoluminescence quantum yield (in ClCCl) of 0.57.
Compound `Clc1nc(Nc2ccccc2)nc(Nc2ccc3cc4ccccc4cc3c2)n1` has a photoluminescence quantum yield (in C1COCCO1) of 0.42, a photoluminescence quantum yield (in CC#N) of 0.18 and a photoluminescence quantum yield (in CCCCOCCCC) of 0.35. It also gave a photoluminescence quantum yield (in CCOC(C)=O) of 0.23.
In the case of `CCCCNc1ccc2n1[B-](F)(F)[N+]1=CC(/C=C/C(=O)OC(C)(C)C)=CC1=C2c1c(C)cc(C)cc1C`, the photoluminescence quantum yield (in ClCCl) was 0.59.
`CC(C)c1cc(C(C)C)c(B2c3cc(-n4c5ccc(C(C)(C)C)cc5c5cc(C(C)(C)C)ccc54)ccc3N(c3ccccc3)c3ccc(-n4c5ccc(C(C)(C)C)cc5c5cc(C(C)(C)C)ccc54)cc32)c(C(C)C)c1` showed a photoluminescence quantum yield [1] of 0.98.
In the case of `c1ccc(N(c2ccccc2)c2ccc(-c3ccc(-c4ccc(-c5ccc(-c6ccc(N(c7ccccc7)c7ccccc7)cc6)s5)c5nsnc45)s3)cc2)cc1`, the photoluminescence quantum yield (in ClC(Cl)Cl) was 0.23.
Compound `c1ccc(-c2ccccc2)cc1` has a photoluminescence quantum yield (in C1CCCCC1) of 0.25 and a photoluminescence quantum yield (in C1COCCO1) of 0.18.
`O=[N+]([O-])c1ccc(/C=C/c2cn(S(=O)(=O)c3ccccc3)c3ccccc23)cc1` showed a photoluminescence quantum yield (in CC#N) of 0.066, a photoluminescence quantum yield (in CCCCCCC) of 0.004 and a photoluminescence quantum yield (in CO) of 0.002. The photoluminescence quantum yield (in O) was 0.003.
For `CN1/C(=C/C=C/C2=[N+](CCCCCC(=O)O)c3ccc(S(=O)(=O)[O-])cc3C2(C)C)C(C)(C)c2cc(S(=O)(=O)[O-])ccc21`, the photoluminescence quantum yield (in O) was 0.04.
With `Cc1ccc(-c2ccc(/C=C/c3cccn3C)cn2)nc1` the photoluminescence quantum yield (in C1COCCO1) was 0.25, the photoluminescence quantum yield (in CC#N) was 0.087 and the photoluminescence quantum yield (in CCCCCC) was 0.36. It also gave a photoluminescence quantum yield (in CCO) of 0.2, a photoluminescence quantum yield (in CN(C)C=O) of 0.19 and a photoluminescence quantum yield (in CO) of 0.18. It also gave a photoluminescence quantum yield (in CS(C)=O) of 0.19, a photoluminescence quantum yield (in Cc1ccccc1) of 0.25 and a photoluminescence quantum yield (in ClC(Cl)Cl) of 0.25. For the same compound, the photoluminescence quantum yield (in c1ccccc1) was 0.25.
